32 compounds from patent publication US20230365592A1 (Agios Pharmaceuticals, Inc., priority 2022, published 2023) can be followed below.

One may read the AC50 as the concentration giving half of the maximal activity seen.

Where only a bound is given, the exact number is not on record here.

One test deals with T1, human PAH with the R408W mutation (Homo sapiens, UniProt P00439, R408W).
T1 construct: expressed in transfected cells
T1 sequence (P00439 1-452 R408W): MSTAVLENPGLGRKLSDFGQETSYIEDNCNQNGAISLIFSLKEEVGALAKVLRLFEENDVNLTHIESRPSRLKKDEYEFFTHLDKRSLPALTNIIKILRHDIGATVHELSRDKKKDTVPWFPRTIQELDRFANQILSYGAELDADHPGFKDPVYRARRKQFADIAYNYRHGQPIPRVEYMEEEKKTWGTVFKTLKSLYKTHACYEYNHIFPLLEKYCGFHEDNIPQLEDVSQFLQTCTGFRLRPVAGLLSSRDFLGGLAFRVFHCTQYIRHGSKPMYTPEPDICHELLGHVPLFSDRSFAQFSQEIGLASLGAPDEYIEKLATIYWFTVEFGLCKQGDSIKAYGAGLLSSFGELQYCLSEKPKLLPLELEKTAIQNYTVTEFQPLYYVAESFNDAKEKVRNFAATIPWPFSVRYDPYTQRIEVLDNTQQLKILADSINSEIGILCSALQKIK
The experiment in a line: Cell Based Phenylalanine Flux Assay.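 Also: after compound treatment, cells received sepiapterin plus isotope-labelled Phenylalanine for 4 hours, then labelled Tyrosine in the medium was quantified, 10-point 2-fold dilution series run in duplicate.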 To be noted: A375 cells expressing R408W PAH; 24 hrs with compound, then 20 µM sepiapterin and 800 µM 13C9,15N-Phenylalanine for 4 hours; 13C-Tyrosine by LC-MS; average where tested multiple times; read-out: AC50.
Take `COc1cccn2nc(C3c4nc[nH]c4CCN3C(=O)c3nnc(-c4ncccn4)o3)cc12` (centres unmarked): the AC50 was more than 5000 nM.
Still for that read-out and setting: the value for `Cn1ccc(-c2ncc(C(=O)N3CCc4[nH]cnc4C3c3cc4ccccn4n3)o2)n1` (centres unmarked) was more than 5000 nM; that for `CC(C)c1nnc(N2CCc3[nH]cnc3C2c2cc3c(C4CC4)cccn3n2)o1` (centres unmarked) was more than 5000 nM.
On to `Cn1cc(-c2nnc(C(=O)N3CCc4[nH]cnc4C3c3nn4ccccc4c3Br)o2)cn1` (single isomer, unassigned), for which the AC50 was 1000 to 5000 nM.
Still for that read-out and setting: the value for `Cc1cccc2cc(C3c4nc[nH]c4CCN3C(=O)c3cnn4ccccc34)nn12` (centres unmarked) was 1000 to 5000 nM; that for `O=C(c1ocnc1CC(F)F)N1CCc2[nH]cnc2C1c1cc2ccccn2n1` (centres unmarked) was 1000 to 5000 nM; that for `Cn1cc(-c2nnc(C(=O)N3CCc4[nH]cnc4C3c3cc4cc(C(F)(F)F)ccn4n3)o2)cn1` (centres unmarked) was more than 5000 nM.
On to `Fc1cccc2cc(C3c4nc[nH]c4CCN3c3nnc(-c4ccccn4)o3)nn12` (centres unmarked), for which the AC50 fell in the range of 1000 to 5000 nM.
Take `COc1ccc2c(C(=O)N3CCc4[nH]cnc4C3c3cc4c(OC)cccn4n3)cnn2c1` (centres unmarked): the AC50 was in the range of 1000 to 5000 nM.
Take `Cc1cccn2nc(C3c4nc[nH]c4CCN3C(=O)c3nnc(N4CCOCC4)o3)cc12` (centres unmarked): the AC50 fell in the range of 1000 to 5000 nM.

The test is the same for the next values; noted with them: A375 cells expressing human PAH R408W; 24 hrs compound incubation; 13C-Tyrosine by LC-MS; average where tested multiple times; read-out: AC50.
On to `FC(F)(F)c1cccn2nc([C@H]3c4nc[nH]c4CCN3c3nnc(-c4cnccn4)o3)cc12` [Example 2511, (R)-2-(pyrazin-2-yl)-5-(4-(4-(trifluoromethyl)pyrazolo[1,5-a]pyridin-2-yl)-1,4,6,7-tetrahydro-5H-imidazo[4,5-c]pyridin-5-yl)-1,3,4-oxadiazole], for which the AC50 was more than 5000 nM.
`Fc1cccc(F)c1-c1nnc(N2CCc3[nH]cnc3[C@@H]2c2cc3cccc(C(F)F)n3n2)o1` [Example 2092, (R)-2-(4-(7-(difluoromethyl)pyrazolo[1,5-a]pyridin-2-yl)-1,4,6,7-tetrahydro-5H-imidazo[4,5-c]pyridin-5-yl)-5-(2,6-difluorophenyl)-1,3,4-oxadiazole]: the AC50 was more than 5000 nM.
For the compound `O=C(c1nnc(-c2cnn(C(F)(F)F)c2)o1)N1CCc2[nH]cnc2[C@H]1c1cc2ccccn2n1` [Example 2426, (S)-(4-(pyrazolo[1,5-a]pyridin-2-yl)-6,7-dihydro-1H-imidazo[4,5-c]pyridin-5(4H)-yl)(5-(1-(trifluoromethyl)-1H-pyrazol-4-yl)-1,3,4-oxadiazol-2-yl)methanone], the AC50 lay within 1000 to 5000 nM.
On the same count and under the same terms, the figure for `Cc1cccc2cc([C@@H]3c4nc[nH]c4CCN3C(=O)c3nnc(-c4cn(C)cn4)o3)nn12` [Example 2395, (S)-(5-(1-methyl-1H-imidazol-4-yl)-1,3,4-oxadiazol-2-yl)(4-(7-methylpyrazolo[1,5-a]pyridin-2-yl)-6,7-dihydro-1H-imidazo[4,5-c]pyridin-5(4H)-yl)methanone] is 1000 to 5000 nM.
Still for that read-out and setting: the figure for `FC(F)(F)c1ccc(N2CCc3[nH]cnc3[C@H]2c2cc3ccccn3n2)nc1` [Example 1914, (S)-4-(pyrazolo[1,5-a]pyridin-2-yl)-5-(5-(trifluoromethyl)pyridin-2-yl)-4,5,6,7-tetrahydro-1H-imidazo[4,5-c]pyridine] is less than 500 nM; for `FC(F)c1cccn2nc([C@H]3c4nc[nH]c4CCN3c3cncc(Cl)n3)cc12` [Example 1828, (R)-5-(6-chloropyrazin-2-yl)-4-(4-(difluoromethyl)pyrazolo[1,5-a]pyridin-2-yl)-4,5,6,7-tetrahydro-1H-imidazo[4,5-c]pyridine] it is 1000 to 5000 nM.
On the same count and under the same terms, the figure for `Cc1cccn2nc([C@@H]3c4nc[nH]c4CCN3C(=O)c3cnc(-c4cnccn4)o3)cc12` [Example 2240, (S)-(4-(4-methylpyrazolo[1,5-a]pyridin-2-yl)-1,4,6,7-tetrahydro-5H-imidazo[4,5-c]pyridin-5-yl)(2-(pyrazin-2-yl)oxazol-5-yl)methanone] is 500 to 1000 nM.

Still in this test, the particulars now being: A375 cells expressing human R408W PAH; 24 hrs compound incubation; 13C-Tyrosine by LC-MS; average where tested multiple times; read-out: AC50.
Consider `O=C(c1nnc(-c2ccccn2)o1)N1CCc2[nH]cnc2[C@H]1c1cc2ccccn2n1` [Example 605, (S)-(4-(pyrazolo[1,5-a]pyridin-2-yl)-6,7-dihydro-1H-imidazo[4,5-c]pyridin-5(4H)-yl)(5-(pyridin-2-yl)-1,3,4-oxadiazol-2-yl)methanone], for which the AC50 was in the range of 500 to 1000 nM.
The same measure, in the same setting: the figure for `Cc1cccn2nc([C@H]3c4nc[nH]c4CCN3C(=O)c3nnc(-c4cn(C)cn4)o3)cc12` [Example 807, (R)-(5-(1-methyl-1H-imidazol-4-yl)-1,3,4-oxadiazol-2-yl)(4-(4-methylpyrazolo[1,5-a]pyridin-2-yl)-6,7-dihydro-1H-imidazo[4,5-c]pyridin-5(4H)-yl)methanone] is more than 5000 nM; for `O=C(c1nnc(-c2ccccn2)o1)N1CCc2[nH]cnc2[C@H]1c1cc2c(OC(F)F)cccn2n1` [Example 1689, (S)-(4-(4-(difluoromethoxy)pyrazolo[1,5-a]pyridin-2-yl)-6,7-dihydro-1H-imidazo[4,5-c]pyridin-5(4H)-yl)(5-(pyridin-2-yl)-1,3,4-oxadiazol-2-yl)methanone] it is less than 500 nM.
For the compound `COc1cccn2nc([C@@H]3c4nc[nH]c4CCN3C(=O)c3cnco3)cc12` [Example 1166, (S)-(4-(4-methoxypyrazolo[1,5-a]pyridin-2-yl)-6,7-dihydro-1H-imidazo[4,5-c]pyridin-5(4H)-yl)(oxazol-5-yl)methanone], the AC50 is 500 to 1000 nM.
Same read-out and setting: the value for `O=C(c1cn(-c2ccccn2)nc1Cl)N1CCc2[nH]cnc2[C@@H]1c1cc2ccccn2n1` [Example 675, (R)-(3-chloro-1-(pyridin-2-yl)-1H-pyrazol-4-yl)(4-(pyrazolo[1,5-a]pyridin-2-yl)-6,7-dihydro-1H-imidazo[4,5-c]pyridin-5(4H)-yl)methanone] was more than 5000 nM; that for `FC(F)(F)c1cnc(N2CCc3[nH]cnc3[C@@H]2c2cc3c(C(F)(F)F)cccn3n2)nc1` [Example 1775, (R)-4-(4-(trifluoromethyl)pyrazolo[1,5-a]pyridin-2-yl)-5-(5-(trifluoromethyl)pyrimidin-2-yl)-4,5,6,7-tetrahydro-1H-imidazo[4,5-c]pyridine] was more than 5000 nM.
With `Cc1cccc2cc([C@@H]3c4nc[nH]c4CCN3c3nnc(C(F)F)o3)nn12` [Example 1741, (S)-2-(difluoromethyl)-5-(4-(7-methylpyrazolo[1,5-a]pyridin-2-yl)-6,7-dihydro-1H-imidazo[4,5-c]pyridin-5(4H)-yl)-1,3,4-oxadiazole], the AC50 fell in the range of 500 to 1000 nM.
Still for that read-out and setting: the figure for `O=C(c1nnc(-c2ncccc2F)o1)N1CCc2[nH]cnc2[C@@H]1c1cc2cccc(F)n2n1` [Example 1458, (R)-(4-(7-fluoropyrazolo[1,5-a]pyridin-2-yl)-6,7-dihydro-1H-imidazo[4,5-c]pyridin-5(4H)-yl)(5-(3-fluoropyridin-2-yl)-1,3,4-oxadiazol-2-yl)methanone] is 1000 to 5000 nM.
As to `CC(C)(F)c1nnc(C(=O)N2CCc3[nH]cnc3[C@H]2c2cc3cccc(F)n3n2)o1` [Example 987, (S)-(5-(2-fluoropropan-2-yl)-1,3,4-oxadiazol-2-yl)(4-(7-fluoropyrazolo[1,5-a]pyridin-2-yl)-6,7-dihydro-1H-imidazo[4,5-c]pyridin-5(4H)-yl)methanone], the AC50 fell in the range of 500 to 1000 nM.
Same read-out and setting: the figure for `Cn1nc(C(F)F)nc1C(=O)N1CCc2[nH]cnc2[C@H]1c1cc2c(F)cccn2n1` [Example 764, (S)-(3-(difluoromethyl)-1-methyl-1H-1,2,4-triazol-5-yl)(4-(4-fluoropyrazolo[1,5-a]pyridin-2-yl)-6,7-dihydro-1H-imidazo[4,5-c]pyridin-5(4H)-yl)methanone] is 500 to 1000 nM.
Same read-out and setting: the value for `O=C(c1oc(C2(O)CC2)nc1C(F)F)N1CCc2[nH]cnc2[C@@H]1c1cc2c(C(F)(F)F)cccn2n1` [Example 1223, (R)-(4-(difluoromethyl)-2-(1-hydroxycyclopropyl)oxazol-5-yl)(4-(4-(trifluoromethyl)pyrazolo[1,5-a]pyridin-2-yl)-6,7-dihydro-1H-imidazo[4,5-c]pyridin-5(4H)-yl)methanone] was 1000 to 5000 nM.
Regarding `Cn1cc(C(=O)N2CCc3[nH]cnc3[C@H]2c2cc3ccccn3n2)c(Cl)n1` [Example 665, (S)-(3-chloro-1-methyl-1H-pyrazol-4-yl)(4-(pyrazolo[1,5-a]pyridin-2-yl)-6,7-dihydro-1H-imidazo[4,5-c]pyridin-5(4H)-yl)methanone], the AC50 is less than 500 nM.
`COc1cccn2nc([C@@H]3c4nc[nH]c4CCN3C(=O)c3cc(C(F)F)nn3C)cc12` [Example 886, (S)-(3-(difluoromethyl)-1-methyl-1H-pyrazol-5-yl)(4-(4-methoxypyrazolo[1,5-a]pyridin-2-yl)-6,7-dihydro-1H-imidazo[4,5-c]pyridin-5(4H)-yl)methanone]: the AC50 is less than 500 nM.
For the compound `CC(C)(F)c1nnc(C(=O)N2CCc3[nH]cnc3[C@@H]2c2cc3c(C(F)(F)F)cccn3n2)o1` [Example 951, (R)-(5-(2-fluoropropan-2-yl)-1,3,4-oxadiazol-2-yl)(4-(4-(trifluoromethyl)pyrazolo[1,5-a]pyridin-2-yl)-6,7-dihydro-1H-imidazo[4,5-c]pyridin-5(4H)-yl)methanone], the AC50 lay in the range of 1000 to 5000 nM.
Turning to `Cc1ccc2cc([C@H]3c4nc[nH]c4CCN3C(=O)c3nnc(C4CC4)o3)nn2c1` [Example 967, (R)-(5-cyclopropyl-1,3,4-oxadiazol-2-yl)(4-(6-methylpyrazolo[1,5-a]pyridin-2-yl)-6,7-dihydro-1H-imidazo[4,5-c]pyridin-5(4H)-yl)methanone], the AC50 is more than 5000 nM.
